Experimental data reported in patent US9765075B2, “Substituted bridged urea analogs as sirtuin modulators” (GLAXOSMITHKLINE LLC, priority 2013, dated 2017).

Target: T1, SIRT1 (Homo sapiens, UniProt Q96EB6)
T1 sequence (Q96EB6 1-747): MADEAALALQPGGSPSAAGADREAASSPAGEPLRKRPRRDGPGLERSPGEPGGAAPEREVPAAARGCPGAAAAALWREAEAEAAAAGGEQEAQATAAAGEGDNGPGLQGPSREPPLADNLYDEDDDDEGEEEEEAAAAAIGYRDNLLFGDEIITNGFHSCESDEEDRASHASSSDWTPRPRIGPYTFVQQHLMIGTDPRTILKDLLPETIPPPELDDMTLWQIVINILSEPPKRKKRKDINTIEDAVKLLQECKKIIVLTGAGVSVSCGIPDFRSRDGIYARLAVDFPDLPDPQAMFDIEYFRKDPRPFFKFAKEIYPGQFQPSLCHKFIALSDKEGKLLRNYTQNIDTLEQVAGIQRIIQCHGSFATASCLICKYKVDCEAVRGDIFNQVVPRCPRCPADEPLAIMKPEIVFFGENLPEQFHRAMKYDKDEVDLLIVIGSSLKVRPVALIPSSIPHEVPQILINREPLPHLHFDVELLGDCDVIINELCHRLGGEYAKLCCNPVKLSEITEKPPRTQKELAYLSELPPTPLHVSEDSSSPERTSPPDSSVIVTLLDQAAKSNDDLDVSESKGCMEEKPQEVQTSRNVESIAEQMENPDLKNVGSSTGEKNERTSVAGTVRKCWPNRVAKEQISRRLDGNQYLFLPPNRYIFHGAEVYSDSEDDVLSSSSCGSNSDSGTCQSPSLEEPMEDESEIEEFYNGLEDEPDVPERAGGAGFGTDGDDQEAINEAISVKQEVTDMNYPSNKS
Assay: Trp mass spectrometry assay (SIRT1 activation)
Type: biochemical
Conditions: Trp mass spectrometry assay; for Tryp AVG EC1.5 (μM): EC1.5 = concentration giving 150% activation of SIRT1; for Emax: percent maximum fold activation of SIRT1, read-out: Tryp % Fold Act
How it was run: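 N-His-tagged SIRT1 (10 nM), expressed in E. coli, was incubated with 0.5 μM Ac-RHKK(Ac)W-NH2 peptide and 120 μM NAD+ for 25 min at 25 °C in HEPES pH 7.5 with […]. The reaction was stopped with formic acid and O-acetyl-ADP-ribose or deacetylated peptide was quantified by mass spectrometry. Results are given as EC1.5 and percent maximal activation relative to DMSO control.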

| Tryp AVG EC1.5 (μM) | Emax [%] | Compound |
| --- | --- | --- |
| A (EC1.5<1 μM) | ≥ 150 | CN1CCN(c2ccnc(NC(=O)N3c4nc(-c5cccc(C(F)(F)F)c5)ccc4N4CC[C@H]3C4)n2)CC1 [Example 742] |
| A (EC1.5<1 μM) | ≥ 150 | O=C(Nc1cc(-c2cnco2)cc(-c2cnco2)c1)N1c2nc(-c3cccc(C(F)(F)F)c3)ccc2N2CC[C@H]1C2 [Example 743] |
| B (EC1.5 1-25 μM) | ≥ 150 | O=C(Nc1nccc(N2CCNCC2)n1)N1c2nc(-c3cccc(C(F)(F)F)c3)ccc2N2CC[C@H]1C2 [Example 745] |
| A (EC1.5<1 μM) | ≥ 150 | Cc1cc(-c2ccc3c(n2)N(C(=O)Nc2cc(-c4cnco4)ccn2)[C@H]2CCN3C2)ccn1 [Example 746] |
| A (EC1.5<1 μM) | ≥ 150 | CN(C)c1ccnc(NC(=O)N2c3nc(-c4cccc(C(F)(F)F)c4)ccc3N3CC[C@H]2C3)n1 [Example 747] |
| A (EC1.5<1 μM) | ≥ 150 | Cc1cc(-c2ccc3c(n2)N(C(=O)Nc2cncc(-c4cnco4)c2)[C@H]2CCN3C2)ccn1 [Example 748] |
| A (EC1.5<1 μM) | ≥ 150 | CC(C)(C)OC(=O)NCC#Cc1cc(NC(=O)N2c3nc(-c4cccc(C(F)(F)F)c4)ccc3N3CC[C@H]2C3)cc(-c2cnco2)c1 [Example 749] |
| A (EC1.5<1 μM) | ≥ 150 | CC(C)(C)OC(=O)NCCCc1ccc(NC(=O)N2c3nc(-c4cccc(C(F)(F)F)c4)ccc3N3CC[C@H]2C3)cc1-c1cnco1 [Example 750] |
| A (EC1.5<1 μM) | ≥ 150 | CC(C)(C)OC(=O)NCC#Cc1ccc(NC(=O)N2c3nc(-c4cccc(C(F)(F)F)c4)ccc3N3CC[C@H]2C3)cc1-c1cnco1 [Example 751] |
| A (EC1.5<1 μM) | ≥ 150 | CC(C)(C)OC(=O)NCCCc1ccc(NC(=O)N2c3nc(-c4cccc(C(F)(F)F)c4)ccc3N3CCC[C@H]2C3)cc1-c1cnco1 [Example 752] |
| A (EC1.5<1 μM) | ≥ 150 | CC(C)(C)OC(=O)NCC#Cc1ccc(NC(=O)N2c3nc(-c4cccc(C(F)(F)F)c4)ccc3N3CCC[C@H]2C3)cc1-c1cnco1 [Example 753] |
| A (EC1.5<1 μM) |  | CC(C)(C)OC(=O)NCCCc1cc(NC(=O)N2c3nc(-c4cccc(C(F)(F)F)c4)ccc3N3CCC[C@H]2C3)cc(-c2cnco2)c1 [Example 754] |

Second part, the compound before the results:

| Compound | Tryp AVG EC1.5 (μM) | Emax [%] |
| --- | --- | --- |
| O=C(Nc1cccnc1)N1c2nc(-c3cncc(C(F)(F)F)c3)ccc2N2C[C@@H](O)[C@H]1C2 [Example 705] | B (EC1.5 1-25 μM) | ≥ 150 |
| O=C(NCc1ncc(-c2cccc(NC(=O)N3c4nc(-c5cccc(C(F)(F)F)c5)ccc4N4CC[C@H]3C4)c2)o1)OCc1ccccc1 [Example 706] | A (EC1.5<1 μM) | ≥ 150 |
| O=C(CCCCCNC(=O)c1ccc2c(c1)C(=O)OC21c2ccc(O)cc2Oc2cc(O)ccc21)NCc1ncc(-c2cccc(NC(=O)N3c4nc(-c5cccc(C(F)(F)F)c5)ccc4N4CC[C@H]3C4)c2)o1 [Example 708] | A (EC1.5<1 μM) | ≥ 150 |
| O=C(Nc1cccc(-c2cnco2)c1)N1c2nc(-c3cncc(C(F)(F)F)c3)ccc2N2C[C@@H](O)[C@H]1C2 [Example 709] | A (EC1.5<1 μM) | ≥ 150 |
| CS(=O)(=O)c1cccc(-c2ccc3c(n2)N(C(=O)Nc2cccc(-c4cnco4)c2)[C@H]2CCN3C2)c1 [Example 710] | A (EC1.5<1 μM) | ≥ 150 |
| CCC(=O)c1cccc(NC(=O)N2c3nc(-c4cccc(C(F)(F)F)c4)ccc3N3CC[C@H]2C3)c1 [Example 714] | A (EC1.5<1 μM) | ≥ 150 |
| CS(=O)(=O)c1cccc(-c2ccc3c(n2)N(C(=O)Nc2cccc(-c4cnco4)n2)[C@H]2CCN3C2)c1 [Example 715] | B (EC1.5 1-25 μM) | ≥ 150 |
| O=C(Nc1cncc(-c2cnco2)c1)N1c2nc(-c3cncc(F)c3)ccc2N2CC[C@H]1C2 [Example 716] | B (EC1.5 1-25 μM) | ≥ 150 |
| O=C(Nc1cccc(-c2cnco2)c1)N1c2nc(N3CCC[C@@H](C(F)(F)F)C3)ccc2N2CC[C@H]1C2 [Example 717] | A (EC1.5<1 μM) | ≥ 150 |
| O=C(Nc1cccc(-c2cnco2)c1)N1c2nc(N3CCC[C@H](C(F)(F)F)C3)ccc2N2CC[C@H]1C2 [Example 718] | A (EC1.5<1 μM) | ≥ 150 |
| O=C(Nc1nnc(-c2ccccc2)o1)N1c2nc(-c3cccc(C(F)(F)F)c3)ccc2N2CC[C@H]1C2 [Example 719] | A (EC1.5<1 μM) | ≥ 150 |
| O=C(Nc1nnc(-c2ccccn2)o1)N1c2nc(-c3cccc(C(F)(F)F)c3)ccc2N2CC[C@H]1C2 [Example 720] | A (EC1.5<1 μM) | ≥ 150 |
| O=C(Nc1nnc(-c2cccnc2)o1)N1c2nc(-c3cccc(C(F)(F)F)c3)ccc2N2CC[C@H]1C2 [Example 721] | A (EC1.5<1 μM) | ≥ 150 |
| O=C(Nc1cccc(-c2cnco2)c1)N1c2nc(-c3cncc(F)c3)ccc2N2CC[C@H]1C2 [Example 722] | A (EC1.5<1 μM) | ≥ 150 |
| CS(=O)(=O)c1cccc(-c2ccc3c(n2)N(C(=O)Nc2cc(-c4cnco4)ccn2)[C@H]2CCN3C2)c1 [Example 723] | A (EC1.5<1 μM) | ≥ 150 |
| CS(=O)(=O)c1cccc(-c2ccc3c(n2)N(C(=O)Nc2cncc(-c4cnco4)c2)[C@H]2CCN3C2)c1 [Example 724] | A (EC1.5<1 μM) | ≥ 150 |
| NCc1ncc(-c2cccc(NC(=O)N3c4nc(-c5cccc(C(F)(F)F)c5)ccc4N4CC[C@H]3C4)c2)o1 [Example 725] | A (EC1.5<1 μM) | ≥ 150 |
| O=C(Nc1cc(-c2cnco2)ccn1)N1c2nc(-c3cncc(C(F)(F)F)c3)ccc2N2C[C@@H](O)[C@H]1C2 [Example 726] | B (EC1.5 1-25 μM) | < 150 |
| O=C(Nc1cc(-c2cnco2)ccn1)N1c2nc(-c3cncc(F)c3)ccc2N2CC[C@H]1C2 [Example 727] | A (EC1.5<1 μM) | ≥ 150 |
| O=C(Nc1cccc(CN2CCNCC2)c1)N1c2nc(-c3cccc(C(F)(F)F)c3)ccc2N2CC[C@H]1C2 [Example 731] | A (EC1.5<1 μM) | ≥ 150 |
| O=C(Nc1nnc(-c2ccncc2)s1)N1c2nc(-c3cccc(C(F)(F)F)c3)ccc2N2CC[C@H]1C2 [Example 733] | A (EC1.5<1 μM) | ≥ 150 |
| O=C(Nc1ncc(-c2ccccc2)s1)N1c2nc(-c3cccc(C(F)(F)F)c3)ccc2N2CC[C@H]1C2 [Example 734] | B (EC1.5 1-25 μM) | ≥ 150 |
| CCCC(=O)c1cccc(NC(=O)N2c3nc(-c4cccc(C(F)(F)F)c4)ccc3N3CC[C@H]2C3)c1 [Example 736] | A (EC1.5<1 μM) | ≥ 150 |
| CCCCC(=O)c1cccc(NC(=O)N2c3nc(-c4cccc(C(F)(F)F)c4)ccc3N3CC[C@H]2C3)c1 [Example 737] | A (EC1.5<1 μM) | ≥ 150 |
| O=C(Nc1cccc(-c2cnco2)n1)N1c2nc(-c3cncc(F)c3)ccc2N2CC[C@H]1C2 [Example 739] | A (EC1.5<1 μM) | ≥ 150 |
| CC(C)C(=O)c1cccc(NC(=O)N2c3nc(-c4cccc(C(F)(F)F)c4)ccc3N3CC[C@H]2C3)c1 [Example 740] | A (EC1.5<1 μM) | ≥ 150 |
| O=C(Nc1cccc(-c2cnco2)c1)N1c2nc(N3CCCN(CC(F)(F)F)CC3)ccc2N2CC[C@H]1C2 [Example 741] | A (EC1.5<1 μM) | ≥ 150 |
